Assay results from ChEMBL document CHEMBL1131913 (Bioorg Med Chem Lett, 1999).

What was measured:
[1] = molecular target: T1, Prostaglandin G/H synthase 2 (Homo sapiens, UniProt P35354); experiment: In vitro inhibitory activity against Prostaglandin G/H synthase 2 (COX-2) in human
T1 sequence (P35354 whole entry): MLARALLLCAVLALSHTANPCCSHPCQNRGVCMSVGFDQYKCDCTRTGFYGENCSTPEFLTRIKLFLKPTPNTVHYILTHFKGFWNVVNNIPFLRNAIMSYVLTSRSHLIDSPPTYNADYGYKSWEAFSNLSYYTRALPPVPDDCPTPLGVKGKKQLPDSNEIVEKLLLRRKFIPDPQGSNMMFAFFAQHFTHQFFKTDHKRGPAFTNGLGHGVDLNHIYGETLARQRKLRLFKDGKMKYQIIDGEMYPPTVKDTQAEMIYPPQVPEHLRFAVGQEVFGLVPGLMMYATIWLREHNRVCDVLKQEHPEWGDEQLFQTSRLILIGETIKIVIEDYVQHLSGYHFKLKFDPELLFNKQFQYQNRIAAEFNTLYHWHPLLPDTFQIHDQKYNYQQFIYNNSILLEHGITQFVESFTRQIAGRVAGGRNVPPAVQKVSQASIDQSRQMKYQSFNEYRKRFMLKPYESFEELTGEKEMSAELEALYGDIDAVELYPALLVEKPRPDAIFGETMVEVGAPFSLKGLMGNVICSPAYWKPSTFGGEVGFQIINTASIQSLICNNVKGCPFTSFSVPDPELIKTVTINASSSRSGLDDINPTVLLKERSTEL

[2] = molecular target: T2, Prostaglandin G/H synthase 1 (Ovis aries, UniProt P05979); experiment: In vitro inhibitory activity against Prostaglandin G/H synthase 1 in sheep
T2 sequence (P05979 whole entry): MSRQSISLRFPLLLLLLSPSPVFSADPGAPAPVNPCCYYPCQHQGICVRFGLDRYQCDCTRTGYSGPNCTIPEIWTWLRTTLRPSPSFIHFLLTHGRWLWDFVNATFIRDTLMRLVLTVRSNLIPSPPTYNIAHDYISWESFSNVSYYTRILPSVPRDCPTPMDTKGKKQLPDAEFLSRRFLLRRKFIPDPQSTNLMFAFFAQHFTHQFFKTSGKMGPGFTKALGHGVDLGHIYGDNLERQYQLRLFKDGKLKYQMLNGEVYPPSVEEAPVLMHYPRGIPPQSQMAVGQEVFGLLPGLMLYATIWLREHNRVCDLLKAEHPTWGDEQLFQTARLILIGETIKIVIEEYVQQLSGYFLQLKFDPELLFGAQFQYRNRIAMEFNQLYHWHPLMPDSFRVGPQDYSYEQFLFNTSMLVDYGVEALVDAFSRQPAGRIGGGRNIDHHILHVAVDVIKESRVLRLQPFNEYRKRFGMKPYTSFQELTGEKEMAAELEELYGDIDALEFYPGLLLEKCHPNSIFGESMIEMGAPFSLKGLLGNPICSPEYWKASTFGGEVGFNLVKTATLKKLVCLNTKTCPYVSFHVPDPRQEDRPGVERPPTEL

Ovis aries = organism: Ovis aries; experiment: Selectivity ratio of COX-1 to that of COX-2

| IC50 [1] [nM] | IC50 [2] [nM] | Selectivity (Ovis aries) | Structure (SMILES) |
| --- | --- | --- | --- |
| 14 | 14 | 1 | CCOc1cccc(-c2ccc(C(C)C(=O)O)cc2F)c1 (stereo not drawn) |
| 670 | 15500 | 23 | C/C=C/c1cncc(-c2ccc(C(C)C(=O)O)cc2)c1 (stereo not drawn) |
| 190 | 190 | 1 | C=Cc1cncc(-c2ccc(C(C)C(=O)O)cc2)c1 (stereo not drawn) |
| 330 | 3100 | 9.4 | CCSc1cccc(-c2ccc(C(C)C(=O)O)cc2)c1 (stereo not drawn) |
| 19000 | 15000 | 0.79 | Cc1cc(C)cc(-c2ccc(C(C)C(=O)O)cc2F)c1 (stereo not drawn) |
| 70 | 63 | 0.9 | COc1cc(OC)cc(-c2ccc(C(C)C(=O)O)cc2F)c1 (stereo not drawn) |
| 320 | 25000 | 78 | CCOc1cc(OCC)cc(-c2ccc(C(C)C(=O)O)cc2)c1 (stereo not drawn) |
| 2400 | 5800 | 2.4 | CCc1cccc(-c2ccc(C(C)C(=O)O)cc2)c1 (stereo not drawn) |
| 100 | 7700 | 77 | CCOc1cc(OCC)cc(-c2ccc(C(C)C(=O)O)cc2F)c1 (stereo not drawn) |
| 150 | 1400 | 9.3 | C=CCc1cccc(-c2ccc(C(C)C(=O)O)cc2)c1 (stereo not drawn) |
| 230 | 10500 | 45 | Cc1cc2cc(-c3ccc(C(C)C(=O)O)cc3)ccc2[nH]1 (stereo not drawn) |
| > 100000 | 15000 | < 0.15 | CC(C)c1cccc(-c2ccc(C(C)C(=O)O)cc2F)c1 (stereo not drawn) |
| 21 | – | – | CC(C(=O)O)c1ccc(-c2ccccc2)cc1 (stereo not drawn) |
| 730 | 1300 | 1.8 | C=Cc1cccc(-c2ccc(C(C)C(=O)O)cc2)c1 (stereo not drawn) |

| Structure (SMILES) | IC50 [1] [nM] | IC50 [2] [nM] | Selectivity (Ovis aries) |
| --- | --- | --- | --- |
| CC(C(=O)O)c1ccc(-c2ccc3[nH]ccc3c2)cc1 (stereo not drawn) | 190 | 100 | 0.53 |
